# How the values were obtained:
# [1] = Acute toxicity (Litchfield and Wilcoxon's Method), mouse; details: in vivo, po, per os
# Protocol: (§1) The acute toxicity was tested on various species of animal using Litchfield and Wilcoxon's Method (J. Pharm. Exp. Therap., 96, 99-113 (1949).
# [2] = Acute toxicity (Litchfield and Wilcoxon's Method), rat; details: in vivo, po, per os
# Protocol: as §1
# [3] = Acute toxicity (Litchfield and Wilcoxon's Method), rabbit; details: in vivo, po, per os
# Protocol: as §1
# [4] = system: Subplantar oedema induced by carrageenin; experiment: Anti-inflammatory activity - carrageenin oedema; format: in vivo, rats; details: for AREA % Absolute value / AREA % inhibition over controls: times 0-5
# Protocol: The tests were carried out on rats, using a test in which a subplantar oedema was induced by carrageenin.
# AFP 860 and, for comparison, 2-(p-isobutylphenyl)propionic acid (Ibuprofen) were administered orally 30 minutes before the carrageenin at the dosages specified below.
# When the oedema had been induced, the animals in each group were monitored, every 60 minutes for 5 consecutive hours in order to ascertain the development of the inflammatory process.
# [5] = system: Pleurisy induced by carrageenin; experiment: Pleurisy induced by carrageenin (Vinegar et al.); format: in vivo, Sprague-Dawley rats; parameters: leukocytes × 1000: unit not given here; details: for % inhib. over control (leukocytes) / % inhib. over control (volume of exudate) / leukocytes × 1000 / Volume (pleural exudate): 100 mg/kg per os; for Volume (pleural exudate): unit assumed
# Protocol: Sprague-Dawley rats of both sexes weighing between 150 and 200 g were used. The animals were divided into "at random" groups and were starved on the previous day with water ad lib.
# The compounds in question were administered orally 30 minutes before the intrapleural injection at an equal dose by weight of 100 mg/kg.
# muscle relaxation = experiment: Muscle relaxant activity, metal grille test (Kondziella); format: in vivo; details: mouse, per os, AFP 860 150 mg/kg, mephenesine 100 mg/kg
# Text: Use was made of the method of Kondziella (1964) which consists in suspending the mice from a metal grille and in recording the number of animals which remain suspended for more than 30 seconds. The animals which fall off during this time period are considered to be subject to muscle relaxation.
# A metal grille having a 7 mm mesh and a surface area of 2×2 m disposed horizontally at 1.5 m from the ground was used for this test. The mice were selected on the day preceding the test, rejecting those which fell within 30 seconds. These were then divided into 7 at random groups and starved. AFP 860 and, for comparison purposes, mephenesine both suspended in 1% carboxymethylcellulose were administered per os at dosages of 150 mg/kg in the case of AFP 860 and 100 mg/kg in the case of mephenesine. A third group of mice acting as the control received 1% CMC in equal volumes to those used for the mice treated with the drugs.
# For each mouse the grille suspension tests were carried out 15 and 30 minutes after administration of the drugs in order to enable the evaluation of the time of maximum activity and then every 30 minutes until the muscle relaxant effect had completely disappeared in order to establish the duration of this effect.
# The parameter used for evaluating the results was the percentage of animals subject to muscle relaxation with respect to those treated.
# [6] = system: contortions induced by phenylquinone; experiment: Analgesic activity - phenylquinone contortions (Siegmund et al.); format: in vivo, mouse; details: for % inhib. over controls (contortions) / Mean No. of Contortions / No. animals undergoing contortions: 100 mg/kg os
# [7] = system: Hyperthermia induced by yeast; experiment: Antipyretic activity - hyperthermia induced by yeast (Boisser et al.); format: in vivo, male rats; details: for Rectal Temperature, 1 h / Rectal Temperature, 2 h / Rectal Temperature, 3 h / Rectal Temperature, 4 h / Rectal Temperature, 5 h / Rectal Temperature, basic / % inhib. over controls (hyperthermia): p.o., Ibuprofen 100 mg/kg, AFP 860 150 mg/kg
# [8] = system: bronchosecretogogue activity; experiment: Bronchosecretogogue activity (Mawatari's technique); format: in vivo, Wistar rats; details: for % increase of FlNa (sodium fluorescein) with respect to controls: 500 mg/kg os
# Protocol: Bronchosecretogogue activity was determined in Wistar rats by means of per os administration using the method of Mawatari (Mawatari H., Kagoshima Daiagaku Igaku-Zasshi, 27, 561 (1976), and comparing AFP 860 and guaiaphenesine at the dosages given below. The results are shown in Table 8.
# bronchial secretion = experiment: Mucosecretolytic activity (technique of Giraldez et al.); format: in vivo, male rabbits; details: for % increase of bronchial secretion over controls: 500 mg/kg os
# Protocol: Mucosecretolytic action was tested on male rabbits using the technique of Giraldez, Grass and Bruseghini (Abstr.Comp.Int.Pharm. N. 1086--Paris 1978) by means of oral administration and comparing AFP 860 with guaiaphenesine at the dosages given below.
# [9] = Pharmacokinetics, Ibuprofen plasma levels; format: in vivo, Charles River albino rats
# [10] = Pulmonary tropism, Ibuprofen lung/plasma concentration ratio; format: in vivo, Charles River albino rats; details: rat
# gastric mucosa = experiment: Gastrolesive action; details: for Mean dimensions (mm) Ulcers: 5 hours and 30 minutes after treatment, os, Ibuprofen 100 mg/kg, AFP 860 150 mg/kg
# [11] = background statement; cited from earlier work
# [12] = per os, Ibuprofen 100 mg/kg, AFP 860 150 mg/kg
compound,measurement,setting,value
"COc1ccccc1OCC(O)COC(=O)C(C)c1ccc(CC(C)C)cc1 (stereo not shown) [AFP 860, 2-hydroxy-3-(o-methoxyphenoxy)propyl 2-(p-isobutyl-phenyl)-propionate]",LD50,[1],1850 mg/kg
same,LD50,[2],2510 mg/kg
same,LD50,[3],3300 mg/kg
same,anti-inflammatory activity (in words),"[4]; carrageenin oedema, compared with Ibuprofen",excellent anti-inflammatory activity which is comparable to that of Ibuprofen
same,"Mean paw volume during treatment, time 0","[4]; time 0, per os, Ibuprofen 100 mg/kg, AFP 860 150 mg/kg",22.1
same,"Mean paw volume during treatment, time 1","[4]; time 1 (every 60 minutes), per os, Ibuprofen 100 mg/kg, AFP 860 150 mg/kg",27.1
same,"Mean paw volume during treatment, time 2","[4]; time 2 (every 60 minutes), per os, Ibuprofen 100 mg/kg, AFP 860 150 mg/kg",30.2
same,"Mean paw volume during treatment, time 3","[4]; time 3 (every 60 minutes), per os, Ibuprofen 100 mg/kg, AFP 860 150 mg/kg",31.6
same,"Mean paw volume during treatment, time 4","[4]; time 4 (every 60 minutes), per os, Ibuprofen 100 mg/kg, AFP 860 150 mg/kg",32.2
same,"Mean paw volume during treatment, time 5","[4]; time 5 (every 60 minutes), per os, Ibuprofen 100 mg/kg, AFP 860 150 mg/kg",34.7
same,AREA % Absolute value,[4]; [12],176.5
same,AREA % inhibition over controls,[4]; [12],43.2%
same,% inhib. over control (leukocytes),[5]; 5 hours,70.75%
same,% inhib. over control (volume of exudate),[5]; 5 hours,43.18%
same,leukocytes × 1000,[5]; 5 hours,"5,130 × 1000"
same,Volume (pleural exudate),[5]; 5 hours,0.54 mL
same,% inhib. over control (leukocytes),[5]; 24 hours,60.75%
same,% inhib. over control (volume of exudate),[5]; 24 hours,48.19%
same,leukocytes × 1000,[5]; 24 hours,"7,190 × 1000"
same,Volume (pleural exudate),[5]; 24 hours,0.43 mL
same,protective action (in words),"[5]; after 24 hours, compared with Ibuprofen",much greater than that of Ibuprofen
same,anti-inflammatory activity (in words),"[5]; pleurisy, equal doses by weight, compared with the comparison drug (Ibuprofen)",greater in absolute terms and of longer duration
same,% animals subject to muscle relaxation,muscle relaxation,60%
same,analgesic activity (in words),"[6]; 100 mg/kg orally, compared with Ibuprofen at equal dosage by weight",slightly inferior to that of Ibuprofen
same,% inhib. over controls (contortions),[6],70.45%
same,Mean No. of Contortions,[6],3.9 ± 1.4
same,No. animals undergoing contortions,[6],2/10
same,"Rectal Temperature, 1 h",[7],37.7 °C
same,"Rectal Temperature, 2 h",[7],37.7 °C
same,"Rectal Temperature, 3 h",[7],37.5 °C
same,"Rectal Temperature, 4 h",[7],37.3 °C
same,"Rectal Temperature, 5 h",[7],37.2 °C
same,"Rectal Temperature, basic",[7],38.4 °C
same,antipyretic activity (in words),[7]; compared with Ibuprofen,"very good antipyretic activity, which is in practice the same as that of Ibuprofen"
same,% inhib. over controls (hyperthermia),[7],127.0%
same,% increase of FlNa (sodium fluorescein) with respect to controls,[8],24.5%
same,bronchosecretogogue effect (in words),"[8]; compared with guaiaphenesine, equal doses by weight",considerable effect as a bronchosecretogogue which may in practice be considered superimposable to that of guaiaphenesine
same,% increase of bronchial secretion over controls,bronchial secretion,32.7%
same,secretolytic activity (in words),bronchial secretion; compared with guaiaphenesine at the same dosages by weight,remarkable secretolytic activity which is comparable with that of guaiaphenesine
same,Ibuprofen plasma levels (in words),"[9]; end of first hour to sixth hour, AFP 860 versus Ibuprofen per se",higher after the administration of AFP 860 than after the administration of Ibuprofen per se
same,latency and bio-availability (in words),[9]; with respect to Ibuprofen and guaiaphenesine,greater degree of latency and an improved bio-availability both with respect to Ibuprofen and guaiaphenesine
same,pulmonary tropism (in words),[10]; in vivo,marked pulmonary tropism
same,Mean dimensions (mm) Ulcers,gastric mucosa,0.8 ± 0.3 mm
same,gastrolesivity (in words),gastric mucosa; compared with Ibuprofen,much lower than the Ibuprofen
"Cc1ccccc1OCC(O)CO (stereo not shown) [Mephenesine, reference compound]",% animals subject to muscle relaxation,muscle relaxation,60%
"COc1ccccc1OCC(O)CO (stereo not shown) [Guaiaphenesine, 3-(o-methoxyphenoxy)-1,2-propandiol, reference compound]",% increase of FlNa (sodium fluorescein) with respect to controls,[8],20.3%
same,% increase of bronchial secretion over controls,bronchial secretion,34.4%
"CC(C)Cc1ccc(C(C)C(=O)O)cc1 (stereo not shown) [Ibuprofen, 2-(p-isobutylphenyl)propionic acid, reference compound]",AREA % Absolute value,[4]; [12],184.0
same,AREA % inhibition over controls,[4]; [12],40.8%
same,% inhib. over control (leukocytes),[5]; 5 hours,69.32%
same,leukocytes × 1000,[5]; 5 hours,"5,380 × 1000"
same,% inhib. over control (leukocytes),[5]; 24 hours,7.47%
same,leukocytes × 1000,[5]; 24 hours,"16,950 × 1000"
same,% inhib. over controls (contortions),[6],82.26%
same,Mean No. of Contortions,[6],1.8 ± 0.6
same,No. animals undergoing contortions,[6],1/10
same,"Rectal Temperature, 1 h",[7],38.0 °C
same,"Rectal Temperature, 2 h",[7],37.7 °C
same,"Rectal Temperature, 3 h",[7],37.3 °C
same,"Rectal Temperature, 4 h",[7],37.5 °C
same,"Rectal Temperature, 5 h",[7],37.4 °C
same,"Rectal Temperature, basic",[7],38.8 °C
same,% inhib. over controls (hyperthermia),[7],119.0%
same,Tmax,"[9]; rat, plasma, po, after Ibuprofen 27 mg/kg per os, read-out: time of Ibuprofen peak in plasma (converted)",30 min
same,Cmax,"[9]; rat, plasma, po, per os, equimolar: Ibuprofen 27 mg/kg, AFP 860 50 mg/kg, read-out: Ibuprofen peak plasma level",24000 ng/mL
same,AUC,"[9]; rat, plasma, po, per os, equimolar: Ibuprofen 27 mg/kg, AFP 860 50 mg/kg, read-out: area under the plasma level curve (AUC) for Ibuprofen",49000 ng·h/mL
same,Kp at 0.5 h,"[10]; lung, po, 30 mins, per os, Ibuprofen 27 mg/kg, AFP 860 50 mg/kg, read-out: Ibuprofen concentration ratio between lung and plasma",0.2
same,Kp at 1 h,"[10]; lung, po, 1 hour, per os, Ibuprofen 27 mg/kg, AFP 860 50 mg/kg, read-out: Ibuprofen concentration ratio between lung and plasma",0.3
same,gastric lesions (in words),[11],considerable gastric lesions
same,Mean dimensions (mm) Ulcers,gastric mucosa,8.7 ± 1.4 mm

# From patent publication US4501914A, “2-Hydroxy-3-(o-methoxy-phenoxy)propyl 2-(p-isobutyl-phenyl)-propionate and pharmaceutical compositions containing the same” (priority 1982, dated 1985)
